# Article PMC12523843, “Kuwanon A Targeted YWHAB in Hepatocellular Carcinoma Cells to Inhibit the Raf/MEK/ERK Signaling Pathway” (Cells, 2025)
# Key:
# MHCC97 H cells = assay: Transwell migration screen of selected compounds; assay type: cell-based, human; conditions: compounds at an IC50 concentration
# Protocol: The Transwell assay measured the migration and invasion of cells by calculating the number of cells that passed through the material. Prior to the Transwell migration assay, cells were serum-starved in FBS-free culture medium for 24 h. The cells were then detached using trypsin, washed 1–2 times with PBS, and resuspended in DMEM. Approximately 50,000–100,000 cells were seeded into the upper chamber of the Transwell insert. The lower chamber was filled with 600 μL of complete medium containing the test compound. The Transwell system was incubated for 12 h under standard culture conditions (37 °C, 5% CO2). After incubation, the migrated cells on the lower membrane surface were fixed with 4% paraformaldehyde (PFA) and stained with 0.1% crystal violet. Non-migrated cells remaining in the upper chamber were carefully removed with a cotton swab. Finally, the stained cells were visualized under a microscope. If matrix gel was needed, it should be added according to the instructions (Beyotime, Shanghai, China) before the cells were seeded.
# [1] = tested on: MHCC97 H cells labeled with luciferase; assay: In vivo imaging of pulmonary metastasis after tail vein injection; design: species or system BALB/c-nu mice; conditions: 30 mg/kg intraperitoneal, once every two days, 32 days
# Description: Thirty-six female BALB/c-nu mice, four weeks old (supplied by Slike Jingda Laboratory Animal Co., Ltd., Changsha, China; Animal qualification number: SCXK-2019-0004), were housed in an SPF room. […] Therefore, female mice were selected for this study; 12 mice were used to establish the hepatocellular carcinoma xenografts. MHCC97 H cells (1 × 10^5 cells) were slowly injected into the left lobe of the mouse liver after being anesthetized with isoflurane. Three days later, the mice received intraperitoneal injections of KA (30 mg/kg) every two days for 45 days. Control mice were administered DMSO injections. Recorded the survival status of the animals. Prior to liver collection, the mice were anesthetized with isoflurane to minimize pain and euthanized by cervical dislocation. Ethics approval serial number: IACUC-20240613-03. Animal experiments were conducted in accordance with the Guide for the Care and Use of Laboratory Animals (Ministry of Science and Technology of China, 2006).
# MHCC97 H cells labeled with luciferase (1 × 10^5 cells) were injected into the 4- to 5-week-old female BALB/c-nu mice (SPF grade, average weight 16–18 g) through intravenous injection. Following the injection, luciferase substrate was delivered to the mice via intraperitoneal injection. After a 5-min period of anesthesia with isoflurane, the mice were imaged using an in vivo small animal imaging system. […]
# [2] = tested on: YWHAB knockdown HCC cells; assay: MTT IC50 in YWHAB knockdown HCC cells; assay type: cell-based, human; conditions: 48 h, vs scramble
# Protocol: (§1) Cell viability was assessed using MTT experiments. Cells, together with KA, were seeded into 96-well plates at a density of 2000 cells per well with three replicates per condition. DMSO was used as a control. At designated time points, 20 μL of MTT (Sigma, St. Louis, MO, USA) solution was added to each well and incubated for 3 h. After removing the culture medium, 200 μL of DMSO was added to dissolve the formazan crystals. The absorbance was then measured using a microplate reader at a wavelength of 560 nm.
# Short hairpin (sh) RNA targeting YWHAB was cloned into the pLKO.1-puro plasmid, with the sequences listed in Supplementary Table S1. Flag-tagged YWHAB, MYC-tagged YWHAB, and Flag-tagged Raf1 plasmids were purchased from Miaoling (Wuhan, China). Transfection was performed by introducing the specified plasmids into HEK293FT cells using Lipofectamine 2000 (Thermo, New York, NY, USA), following the manufacturer’s instructions. Viral supernatant or cells were collected two days post-transfection. For infection, HCC cells were treated with viral supernatant and polybrene (Sigma, Virginia Beach, VA, USA). After two rounds of infection, the cells were stably selected by using puromycin (Sigma, Virginia Beach, VA, USA).
# SMMC 7721 cells = assay: MTT IC50 determination in SMMC 7721; assay type: cell-based; conditions: Homo sapiens, gradient concentrations, 48 h
# Protocol: as §1
# YWHAB dimer [3] = molecular target: T1, YWHAB dimer (Homo sapiens, UniProt P31946); assay: Co-immunoprecipitation of MYC-YWHAB and FLAG-YWHAB in HEK 293T; assay type: cell-based; design: host or cells: HEK 293T; conditions: 25 μM and 30 μM, HEK 293T overexpressing MYC-YWHAB and FLAG-YWHAB
# T1 sequence (P31946 1-246): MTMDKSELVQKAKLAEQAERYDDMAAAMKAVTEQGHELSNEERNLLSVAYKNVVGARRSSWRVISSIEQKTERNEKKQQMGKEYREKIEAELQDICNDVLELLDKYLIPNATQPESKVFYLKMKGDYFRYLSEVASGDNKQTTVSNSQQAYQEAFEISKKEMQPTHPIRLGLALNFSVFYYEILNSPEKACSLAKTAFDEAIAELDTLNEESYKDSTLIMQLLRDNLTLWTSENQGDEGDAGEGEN
# [4] = tested on: MHCC97H and SMMC 7721 cells; assay: CCK8 cell viability screen of mulberry active substances; assay type: cell-based, human; conditions: 10 μM, 48 h
# Protocol: The CCK8 assay is used to investigate the effect of compounds on cell viability by measuring the amount of formazan dye. Firstly, 8000 cells were inoculated into each well of the 96-well plate with three replicates per condition. At the same time, add the corresponding mulberry active substances. After 48 h of incubation, 20 μL of the Cell Counting Kit-8 (CCK8) reagent (Beyotime, Shanghai, China) was added to each well. After being cultured under 37 °C and 5% carbon dioxide for 2–3 h, the absorbance was measured at 450 nm.
# YWHAB dimer [5] = molecular target: T1, YWHAB dimer; assay: Blue-Native PAGE of YWHAB dimer; assay type: cell-based; design: endogenous in cells; host or cells: MHCC97 H and SMMC 7721; conditions: HCC cell lines and FLAG-YWHAB overexpressed HEK 293T cells
# Protocol: Blue/Clear Native PAGE (Real Times, Beijing, China) is an electrophoretic technique used to separate protein complexes from biological samples. Instead of SDS, Coomassie Brilliant Blue G-250 binds to the protein, imparting a negative charge, allowing separation in the PAGE gel based on the molecular weight of the proteins. HCC cells treated with KA or DMSO for 48 h were collected using a cell scraper and lysed on ice in IP cell lysis buffer for one hour. A suitable amount of 4× BN/CN-PAGE protein loading buffer and 5% G-250 stain (for loading) was added to the supernatant of the protein sample, followed by BN-PAGE electrophoresis in the Native PAGE gel. After electrophoresis and membrane transfer, the PVDF membrane (Millipore, Darmstadt, Germany) was blocked with 5% BSA for two hours at room temperature. HPR-linked primary and secondary antibodies were incubated for detection, and protein bands were visualized using the ECL detection system (Clinx, Shanghai, China)
# [6] = molecular target: T2, Raf1 and YWHAB interaction (Homo sapiens, UniProt P31946); assay: Co-immunoprecipitation of MYC-YWHAB and FLAG-Raf 1 in HEK 293T; assay type: cell-based; conditions: 25 μM and 30 μM, HEK 293T overexpressing MYC-YWHAB and FLAG-Raf 1
# T2 construct: host or cells: HEK 293T
# T2 sequence (P31946 1-246): T1 sequence (P31946 1-246)
structure (smiles),measurement,setting,value
"CC(C)=CCc1c(-c2ccc(O)c3c2OC(C)(C)C=C3)oc2cc(O)cc(O)c2c1=O [KA, Kuwanon A]",migration of MHCC97 H (Transwell),MHCC97 H cells,significantly inhibited the migration of MHCC97 H
same,pulmonary metastasis (in vivo imaging),[1],significantly inhibited the pulmonary metastasis
same,IC50 of KA after knockdown of YWHAB,[2],significant increase in the IC50
same,IC50,SMMC 7721 cells,9.85 µM
same,dimerization levels of YWHAB (co-immunoprecipitation),YWHAB dimer [3],reduced dimerization levels of YWHAB
same,viability of HCC cells (CCK8),[4],significantly inhibited the viability of HCC cells
same,proportion of YWHAB dimer (Native-PAGE),YWHAB dimer [5],proportion of YWHAB dimer had decreased
same,amount of YWHAB interacting with Raf1 (co-immunoprecipitation),[6],reduction in the amount of YWHAB interacting with Raf1
